Values of other authors as cited in patent publication US7927486B2, “Polymer modified porous substrate for solid phase extraction” (priority 2005, dated 2011).

CCCCNCC(O)c1ccc(O)cc1.CCCCNCC(O)c1ccc(O)cc1.O=S(=O)(O)O (stereo not shown) [Bamathan hemisulfate]
Log P: 1.29
